Here are results for 27 molecules from patent US20150119394A1, “Insulin-Like Growth Factor-1 Receptor Inhibitors” (Merck Sharp & Dohme Corp., priority 2012, published 2015).

Where only a bound is given, the exact number is not on record here.

T1 sequence (P08069 999-1274 limits assumed): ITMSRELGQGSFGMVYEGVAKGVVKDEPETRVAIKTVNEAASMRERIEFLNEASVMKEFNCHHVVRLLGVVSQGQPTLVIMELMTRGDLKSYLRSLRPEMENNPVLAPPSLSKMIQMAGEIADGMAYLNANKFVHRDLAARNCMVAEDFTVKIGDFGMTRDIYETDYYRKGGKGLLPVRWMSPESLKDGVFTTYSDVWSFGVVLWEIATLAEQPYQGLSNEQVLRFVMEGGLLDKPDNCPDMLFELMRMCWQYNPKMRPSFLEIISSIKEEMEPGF

The test addresses T1, intracellular kinase domain of human IGF-1R (GST fusion protein) (Homo sapiens, UniProt P08069).
T1 construct: IGFRK and IRK enzyme used for the assay was intracellular kinase domain of human IGF-1R; GST; made in house
Kind of test: In vitro IGF-1R kinase assay (HTRF). Format: biochemical. As to conditions: ATP 20 μM, IGFRK 0.25 nM. How it is done:
The in vitro kinase assays using IGF-1R and IR kinase GST fusion proteins were conducted using a homogeneous time-resolved fluorescence (HTRF) format. Kinase reactions were carried out in a 384-well plate format in a final volume of 20 μL. The standard enzyme reaction buffer consisted of 50 mM Tris HCL (pH: 7.4), 1 mM EGTA, 10 mM MgCl2, 2 mM DTT, 0.01% Tween-20, IGF-1R/IR kinase enzyme, poly GT peptide substrate (Perkin Elmer [Ulight Glu-Tyr (4:1)]n) and ATP [concentration equivalent to Kmapp] […] Briefly, 2.5 μL enzyme and 2.5 μL inhibitor was preincubated for 10 minutes at 23° C. followed by the addition of 2.5 μL of poly GT substrate (final concentration of 50 nM). Reaction was initiated with the addition of 2.5 μL of ATP (final concentration of 20 μM for IGF-1R assay and 10 μM for IR assay). After 1 hour incubation at 23° C., the kinase reaction was stopped with the addition of 5 μL EDTA (final concentration of 10 mM in 20 μL). Europium cryptate—labeled antiphosphotyrosine antibody PY20 (5 μL) was added (final concentration of 2 nM) and the mixture was allowed to equilibrate for 1 hour at 23° C. followed by reading the plate in an Envision plate reader.
The intensity of light emission at 665 nm was directly proportional to the level of substrate phosphorylation. The IC50 values for inhibitors were determined by a four-parameter sigmoidal curve fit (Sigma plot or Graph pad).
IGFRK and IRK enzyme used for the assay was intracellular kinase domain of human IGF-1R and human IR cloned and expressed as GST fusion proteins using the baculovirus expression system and purified using glutathione—Sepharose column.
On the technique in general: Time-resolved FRET reads energy transfer from a long-lived donor to a nearby acceptor.
Broadly, the IC50 is the concentration that gives 50% inhibition. Molecule `NC(=O)c1[nH]c2ccc(Cl)cc2c1S(=O)(=O)N1CCO[C@H](COc2ccc(-c3ccccc3)cc2)C1` [Compound 33, (S)-3-((2-(([1,1′-biphenyl]-4-yloxy)methyl)morpholino)sulfonyl)-5-chloro-1H-indole-2-carboxamide] had an IC50 of 30.2 nM. In turn, `NC(=O)c1[nH]c2ccc(Cl)cc2c1S(=O)(=O)N1CCO[C@H](COc2cccc(-c3ccc(C(F)(F)F)nc3)c2)C1` [Compound 6, (S)-5-chloro-3-((2-((3-(6-(trifluoromethyl)pyridin-3-yl)phenoxy)methyl)morpholino)sulfonyl)-1H-indole-2-carboxamide] came in with an IC50 of 65 nM. The figure for `NC(=O)c1[nH]c2ccc(Cl)cc2c1S(=O)(=O)N1CCO[C@H](COc2ccc(-c3cccnc3)cc2)C1` [Compound 31, (S)-5-chloro-3-((2-((4-(pyridin-3-yl)phenoxy)methyl)morpholino)sulfonyl)-1H-indole-2-carboxamide] is 8.7 nM; for `NC(=O)c1[nH]c2ccc(Cl)cc2c1S(=O)(=O)N1CCO[C@H](COc2cccc(-c3ccccn3)c2)C1` [Compound 15, (S)-5-chloro-3-((2-((3-(pyridin-2-yl)phenoxy)methyl)morpholino)sulfonyl)-1H-indole-2-carboxamide] it is 3.7 nM. `NC(=O)c1[nH]c2ccc(Cl)cc2c1S(=O)(=O)N1CCO[C@H](COc2cccc(-c3ccccc3)n2)C1` [Compound 80, (S)-5-chloro-3-((2-(((6-phenylpyridin-2-yl)oxy)methyl)morpholino)sulfonyl)-1H-indole-2-carboxamide] displayed an IC50 of 47.1 nM. Against the preceding molecule, the IC50 is about 13-fold higher.

Turning to `NC(=O)c1[nH]c2ccc(Cl)cc2c1S(=O)(=O)N1CCO[C@H](COc2ccccc2-c2ccccc2)C1` [Compound 54, (S)-3-((2-(([1,1′-biphenyl]-2-yloxy)methyl)morpholino)sulfonyl)-5-chloro-1H-indole-2-carboxamide], the IC50 was above 1000 nM. For `NC(=O)c1[nH]c2ccc(Cl)cc2c1S(=O)(=O)N1CCO[C@H](COc2ccc(-c3ccccc3F)cc2)C1` [Compound 42, (S)-5-chloro-3-((2-(((2′-fluoro-[1,1′-biphenyl]-4-yl)oxy)methyl)morpholino)sulfonyl)-1H-indole-2-carboxamide], it took 119 nM to reach half-maximal inhibition (IC50).

As to `Cc1ccccc1-c1cc(OC[C@@H]2CN(S(=O)(=O)c3c(C(N)=O)[nH]c4ccc(Cl)cc34)CCO2)ccc1C` [Compound 24, (S)-5-chloro-3-((2-(((2′,6-dimethyl-[1,1′-biphenyl]-3-yl)oxy)methyl)morpholino)sulfonyl)-1H-indole-2-carboxamide], the IC50 is 293 nM.

Take `Cc1ncccc1-c1ccccc1OC[C@@H]1CN(S(=O)(=O)c2c(C(N)=O)[nH]c3ccc(Cl)cc23)CCO1` [Compound 63, (S)-5-chloro-3-((2-((2-(2-methylpyridin-3-yl)phenoxy)methyl)morpholino)sulfonyl)-1H-indole-2-carboxamide]: the IC50 was above 1000 nM.

For the molecule `Cc1cc(OC[C@@H]2CN(S(=O)(=O)c3c(C(N)=O)[nH]c4ccc(Cl)cc34)CCO2)ccc1-c1ccnc(F)c1` [Compound 72, (S)-5-chloro-3-((2-((4-(2-fluoropyridin-4-yl)-3-methylphenoxy)methyl)morpholino)sulfonyl)-1H-indole-2-carboxamide], the IC50 is 13.3 nM. `NC(=O)c1[nH]c2ccc(Cl)cc2c1S(=O)(=O)N1CCO[C@H](COc2ccccc2-c2cncnc2)C1` [Compound 60, (S)-5-chloro-3-((2-((2-(pyrimidin-5-yl)phenoxy)methyl)morpholino)sulfonyl)-1H-indole-2-carboxamide]: the IC50 is above 1000 nM.

The molecule `COc1ccccc1-c1ccc(OC[C@@H]2CN(S(=O)(=O)c3c(C(N)=O)[nH]c4ccc(Cl)cc34)CCO2)cc1` [Compound 36, (S)-5-chloro-3-((2-(((2′-methoxy-[1,1′-biphenyl]-4-yl)oxy)methyl)morpholino)sulfonyl)-1H-indole-2-carboxamide] gave an IC50 of 81 nM. `NC(=O)c1[nH]c2ccc(Cl)cc2c1S(=O)(=O)N1CCO[C@H](COc2cncc(-c3ccccc3F)c2)C1` [Compound 78] registered an IC50 above 1000 nM.

With `NC(=O)c1[nH]c2ccc(Cl)cc2c1S(=O)(=O)N1CCO[C@H](COc2cccc(-c3ccncc3)c2)C1` [Compound 2, (S)-5-chloro-3-((2-((3-(pyridin-4-yl)phenoxy)methyl)morpholino)sulfonyl)-1H-indole-2-carboxamide], the IC50 came to 8.5 nM. This lies in the single-digit nanomolar range. For `Cc1cc(-c2cccc(OC[C@@H]3CN(S(=O)(=O)c4c(C(N)=O)[nH]c5ccc(Cl)cc45)CCO3)c2)ccn1` [Compound 19, (S)-5-chloro-3-((2-((3-(2-methylpyridin-4-yl)phenoxy)methyl)morpholino)sulfonyl)-1H-indole-2-carboxamide], the IC50 was 2.9 nM. In turn, `COc1ncc(-c2cccc(OC[C@@H]3CN(S(=O)(=O)c4c(C(N)=O)[nH]c5ccc(Cl)cc45)CCO3)c2)cn1` [Compound 16, (S)-5-chloro-3-((2-((3-(2-methoxypyrimidin-5-yl)phenoxy)methyl)morpholino)sulfonyl)-1H-indole-2-carboxamide] returned an IC50 of 2 nM. `Cc1ccc(OC[C@@H]2CN(S(=O)(=O)c3c(C(N)=O)[nH]c4ccc(Cl)cc34)CCO2)cc1-c1cccnc1F` [Compound 22, (S)-5-chloro-3-((2-((3-(2-fluoropyridin-3-yl)-4-methylphenoxy)methyl)morpholino)sulfonyl)-1H-indole-2-carboxamide] yielded an IC50 of 42.5 nM. Molecule `Cc1ncccc1-c1ccc(OC[C@@H]2CN(S(=O)(=O)c3c(C(N)=O)[nH]c4ccc(Cl)cc34)CCO2)cc1` [Compound 50, (S)-5-chloro-3-((2-((4-(2-methylpyridin-3-yl)phenoxy)methyl)morpholino)sulfonyl)-1H-indole-2-carboxamide] had an IC50 of 3.2 nM.

Consider `NC(=O)c1[nH]c2ccc(Cl)cc2c1S(=O)(=O)N1CCO[C@H](COc2cccc(-c3ccc(Cl)nc3)c2)C1` [Compound 86, (S)-5-chloro-3-((2-((3-(6-chloropyridin-3-yl)phenoxy)methyl)morpholino)sulfonyl)-1H-indole-2-carboxamide], for which the IC50 was 4.9 nM. As for `CN(C)c1ccc(-c2cccc(OC[C@@H]3CN(S(=O)(=O)c4c(C(N)=O)[nH]c5ccc(Cl)cc45)CCO3)c2)cn1` [Compound 5, (S)-5-chloro-3-((2-((3-(6-(dimethylamino)pyridin-3-yl)phenoxy)methyl)morpholino)sulfonyl)-1H-indole-2-carboxamide], the figure is 30.4 nM; as for `COc1cc(-c2ccc(OC[C@@H]3CN(S(=O)(=O)c4c(C(N)=O)[nH]c5ccc(Cl)cc45)CCO3)cc2C)ccn1` [Compound 70, (S)-5-chloro-3-((2-((4-(2-methoxypyridin-4-yl)-3-methylphenoxy)methyl)morpholino)sulfonyl)-1H-indole-2-carboxamide], 75.9 nM. Molecule `Cc1ccc(-c2ccc(OC[C@@H]3CN(S(=O)(=O)c4c(C(N)=O)[nH]c5ccc(Cl)cc45)CCO3)cc2)cn1` [Compound 52, (S)-5-chloro-3-((2-((4-(6-methylpyridin-3-yl)phenoxy)methyl)morpholino)sulfonyl)-1H-indole-2-carboxamide] registered an IC50 above 100 nM.

`Cc1cc(OC[C@@H]2CN(S(=O)(=O)c3c(C(N)=O)[nH]c4ccc(Cl)cc34)CCO2)ccc1-c1cccnc1F` [Compound 68, (S)-5-chloro-3-((2-((4-(2-fluoropyridin-3-yl)-3-methylphenoxy)methyl)morpholino)sulfonyl)-1H-indole-2-carboxamide] had an IC50 of 37.9 nM. The figure for `COc1ccc(-c2cc(OC[C@@H]3CN(S(=O)(=O)c4c(C(N)=O)[nH]c5ccc(Cl)cc45)CCO3)ccc2C)cn1` [Compound 25, (S)-5-chloro-3-((2-((3-(6-methoxypyridin-3-yl)-4-methylphenoxy)methyl)morpholino)sulfonyl)-1H-indole-2-carboxamide] is 53.3 nM. On to `Cc1cc(OC[C@@H]2CN(S(=O)(=O)c3c(C(N)=O)[nH]c4ccc(Cl)cc34)CCO2)ccc1-c1ccc(Cl)nc1` [Compound 88, (S)-5-chloro-3-((2-((4-(6-chloropyridin-3-yl)-3-methylphenoxy)methyl)morpholino)sulfonyl)-1H-indole-2-carboxamide], for which the IC50 was 67 nM. As for `NC(=O)c1[nH]c2ccc(Cl)cc2c1S(=O)(=O)N1CCO[C@H](COc2ccc(-c3ccc(F)nc3)cc2)C1` [Compound 46, (S)-5-chloro-3-((2-((4-(6-fluoropyridin-3-yl)phenoxy)methyl)morpholino)sulfonyl)-1H-indole-2-carboxamide], the figure is 12.8 nM; as for `COc1ccc(-c2cc(OC[C@@H]3CN(S(=O)(=O)c4c(C(N)=O)[nH]c5ccc(Cl)cc45)CCO3)ccc2F)cn1` [Compound 29, (S)-5-chloro-3-((2-((4-fluoro-3-(6-methoxypyridin-3-yl)phenoxy)methyl)morpholino)sulfonyl)-1H-indole-2-carboxamide], 43.2 nM.
